The values that follow come from paper PMC6200635 (ACS infectious diseases, 2018).

Experiment [1] deals with T. gondii tachyzoites (ME49-FLUC) in HeLa cells. In words: Luciferase based growth assay, multi-point dose response. Particulars: Toxoplasma gondii, 72 h. It counts as cell-based.
Experiment [2] concerns GFP-LC3 recruitment to the T. gondii parasite-containing vacuole in GFP-LC3 HeLa cells. The experiment can be described thus: Image based GFP-LC3 recruitment assay. Particulars: IFN-γ 50 U/mL, HeLa cells activated 24 h, 6 h post-infection. It counts as cell-based, Toxoplasma gondii.

Where two headings read alike, the source gives them in different places.

By EC50 is commonly meant the midpoint of the concentration-response curve. For `CCc1nc(N)nc(N)c1-c1ccc(Cl)cc1` [Pyrimethamine], the EC50 turned out to be 0.2 µM in experiment [1] (read-out: EC50+ IFN-γ) and 0.16 µM in experiment [1] (read-out: EC50 Naïve).

B1: IFN-γ: recombinant human IFN-γ (R&D Systems, 285-IF-100/CF) (protein, UniProt P01579 24-161, looked up)
Interferon gamma: QDPYVKEAENLKKYFNAGHSDVADNGTLFLGILKNWKEESDRKIMQSQIVSFYFKLFKNFKDDQSIQKSVETIKEDMNVKFFNSNKKKRDDFEKLTNYSVTDLNVQRKAIHELIQVMAELSPAAKTGKRKRSQMLFRG
For the molecule B1, the “GFP-LC3 positive parasite-containing vacuoles” value in experiment [2] worked out at 12.4%.
